# Assay results as given in patent US7053245B2, “N-acylamino benzyl ether derivatives” (Hoffmann-La Roche Inc., priority 2002, dated 2006).
# Structures can show the parent of a compound that is named as a salt.
# Target: T1, human MAO-B (Homo sapiens, UniProt P27338)
# T1 construct: expressed in transfected cells; host or cells: EBNA cells (transient transfection); cell membranes used
# T1 sequence (P27338 1-520): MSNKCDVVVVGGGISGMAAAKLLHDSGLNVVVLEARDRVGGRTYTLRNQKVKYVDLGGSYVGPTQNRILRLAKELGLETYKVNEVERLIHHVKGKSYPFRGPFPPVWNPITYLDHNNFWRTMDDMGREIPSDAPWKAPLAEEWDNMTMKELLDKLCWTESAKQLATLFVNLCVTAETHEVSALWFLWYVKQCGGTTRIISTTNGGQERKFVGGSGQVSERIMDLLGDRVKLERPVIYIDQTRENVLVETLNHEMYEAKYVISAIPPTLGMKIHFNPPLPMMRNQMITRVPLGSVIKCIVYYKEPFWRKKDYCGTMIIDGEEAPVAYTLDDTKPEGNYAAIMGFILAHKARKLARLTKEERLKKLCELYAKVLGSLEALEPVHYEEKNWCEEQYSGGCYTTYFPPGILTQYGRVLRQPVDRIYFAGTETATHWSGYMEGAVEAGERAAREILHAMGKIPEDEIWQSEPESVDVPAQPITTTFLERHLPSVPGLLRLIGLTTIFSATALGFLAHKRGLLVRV
# Experiment: MAO-B enzymatic activity, spectrophotometric Amplex Red/peroxidase assay on membranes of transfected EBNA cells
# Format: biochemical
# Details: membranes preincubated with compound 30 min at 37° C., pH 7.4; substrate tyramine; nine inhibitor concentrations in duplicate
# Protocol: The cDNA's encoding human MAO-A and MAO-B were transiently transfected into EBNA cells using the procedure described by E.-J. Schlaeger and K. Christensen (Transient Gene Expression in Mammalian Cells Grown in Serum-free Suspension Culture; Cytotechnology, 15: 1-13, 1998). After transfection, cells were homogenised by means of a Polytron homogenizer in 20 mM Tris HCl buffer, pH 8.0, containing 0.5 mM EGTA and 0.5 mM phenylmethanesulfonyl fluoride. Cell membranes were obtained by centrifugation at 45,000×g and, after two rinsing step with 20 mM Tris HCl buffer, pH 8.0, containing 0.5 mM EGTA, membranes were eventually re-suspended in the above buffer and aliquots stored at −80° C. until use.
# MAO-A and MAO-B enzymatic activity was assayed in 96-well-plates using a spectrophometric assay adapted from the method described by M. Zhou and N. Panchuk-Voloshina (A One-Step Fluorometric Method for the Continuous Measurement of Monoamine Oxidase Activity, Analytical Biochemistry, 253: 169-174, 1997). Briefly, membrane aliquots were incubated in 0.1 M potassium phosphate buffer, pH 7.4, for 30 min at 37° C. with or without various concentrations of the compounds. After this period, the enzymatic reaction was started by the addition of the MAO substrate tyramine together with 1 U/ml horse-radish peroxidase (Roche Biochemicals) and 80 μM N-acetyl-3,7,-dihydroxyphenoxazine (Amplex Red, Molecular Probes). The samples were further incubated for 30 min at 37° C. in a final volume of 200 μl and absorbance was then determine at a wavelength of 570 nm using a SpectraMax plate reader (Molecular Devices). Background (non-specific) absorbance was determined in the presence of 10 μM clorgyline for MAO-A or 10 μM L-deprenyl for MAO-B.
# IC50 values were determined from inhibition curves obtained using nine inhibitor concentrations in duplicate, by fitting data to a four parameter logistic equation using a computer program.
row,Compound,IC50 [nM]
1,"COC(=O)CC(=O)Nc1ccc(OCc2cccc(F)c2)cc1 [Example 1, N-[4-(3-Fluoro-benzyloxy)-phenyl]-malonamic acid methyl ester]",11
2,"NC(=O)C1(C(=O)Nc2ccc(OCc3cccc(F)c3)cc2)CC1 [Example 2, Cyclopropane-1,1-dicarboxylic acid amide [4-(3-fluoro-benzyloxy)-phenyl]-amide]",7.9
3,"NC(=O)CC(=O)Nc1ccc(OCc2cccc(F)c2)cc1 [Example 3, N-[4-(3-Fluoro-benzyloxy)-phenyl]-malonamide]",10.9
4,"COC(=O)CC(=O)Nc1ccc(OCc2ccc(F)cc2)cc1 [Example 10, N-[4-(4-Fluoro-benzyloxy)-phenyl]-malonamic acid methyl ester]",11.2
5,"NC(=O)CC(=O)Nc1ccc(OCc2ccc(F)cc2)cc1 [Example 11, N-[4-(4-Fluoro-benzyloxy)-phenyl]-malonamide]",7.5
6,"COC(=O)CC(=O)Nc1ccc(OCc2cccc(F)c2)cc1F [Example 14, N-[2-Fluoro-4-(3-fluoro-benzyloxy)-phenyl]-malonamic acid methyl ester]",9
7,"COC(=O)CC(=O)Nc1ccc(OCc2ccc(F)cc2F)cc1 [Example 25, N-[4-(2,4-Difluoro-benzyloxy)-phenyl]-malonamic acid methyl ester]",11
8,"NC(=O)CC(=O)Nc1ccc(OCc2cc(F)c(F)cc2F)cc1 [Example 29, N-[4-(2,4,5-Trifluoro-benzyloxy)-phenyl]-malonamide]",8
9,"COC(=O)CC(=O)Nc1ccc(OCc2ccc(F)cc2)cc1F [Example 39, N-[2-Fluoro-4-(4-fluoro-benzyloxy)-phenyl]-malonamic acid methyl ester]",5
10,"NC(=O)CC(=O)Nc1ccc(OCc2ccc(F)cc2)cc1F [Example 40, N-[2-Fluoro-4-(4-fluoro-benzyloxy)-phenyl]-malonamide]",15
11,"COC(=O)CC(=O)Nc1ccc(OCc2cc(C(F)(F)F)cc(C(F)(F)F)c2)cc1F [Example 41, N-[4-(3,5-Bis-trifluoromethyl-benzyloxy)-2-fluoro-phenyl]-malonamic acid methyl ester]",13
12,"NC(=O)CC(=O)Nc1ccc(OCc2ccc(C(F)(F)F)cc2)cc1F [Example 44, N-[2-Fluoro-4-(4-trifluoromethyl-benzyloxy)-phenyl]-malonamide]",9
13,"COC(=O)CC(=O)Nc1ccc(OCc2cccc(F)c2)c(Cl)c1 [Example 49, N-[3-Chloro-4-(3-fluoro-benzyloxy)-phenyl]-malonamic acid methyl ester]",10
14,"NC(=O)CC(=O)Nc1ccc(OCc2cccc(F)c2)c(Cl)c1 [Example 50, N-[3-Chloro-4-(3-fluoro-benzyloxy)-phenyl]-malonamide]",6
15,"COC(=O)CC(=O)Nc1ccc(C=Cc2ccc(F)cc2)cc1 [Example 56, N-{4-[2-(4-Fluoro-phenyl)-vinyl]-phenyl}-malonamic acid methyl ester]",10
16,"CC(=O)NCC(=O)Nc1ccc(OCc2ccc(F)cc2)cc1F [Example 70, 2-Acetylamino-N-[2-fluoro-4-(4-fluoro-benzyloxy)-phenyl]-acetamide]",11
17,"CC(=O)NCC(=O)Nc1ccc(OCc2cccc(F)c2)cc1F [Example 75, 2-Acetylamino-N-[2-fluoro-4-(3-fluoro-benzyloxy)-phenyl]-acetamide]",13
18,"O=CNCC(=O)Nc1ccc(OCc2cccc(F)c2)cc1F [Example 76, N-[2-Fluoro-4-(3-fluoro-benzyloxy)-phenyl]-2-formylamino-acetamide]",16

# Continued, values first:
row,IC50 [nM],Compound
1,13,"CC(C(N)=O)C(=O)Nc1ccc(OCc2cccc(F)c2)cc1 (stereo not drawn) [Example 6, N-[4-(3-Fluoro-benzyloxy)-phenyl]-2-methyl-malonamide]"
2,9.6,"COC(=O)CC(=O)Nc1ccc(OCc2cccc(F)c2)c(F)c1 [Example 8, N-[3-Fluoro-4-(3-fluoro-benzyloxy)-phenyl]-malonamic acid methyl ester]"
3,7.2,"NC(=O)CC(=O)Nc1ccc(OCc2cccc(F)c2)c(F)c1 [Example 9, N-[3-Fluoro-4-(3-fluoro-benzyloxy)-phenyl]-malonamide]"
4,11,"COC(=O)CC(=O)Nc1ccc(OCc2cc(F)c(F)cc2F)cc1 [Example 27, N-[4-(2,4,5-Trifluoro-benzyloxy)-phenyl]-malonamic acid methyl ester]"
5,8,"NC(=O)CC(=O)Nc1ccc(OCc2ccc(F)cc2F)cc1 [Example 28, N-[4-(2,4-Difluoro-benzyloxy)-phenyl]-malonamide]"
6,18,"NC(=O)CC(=O)Nc1ccc(OCc2ccc(Cl)cc2)cc1 [Example 34, N-[4-(4-Chloro-benzyloxy)-phenyl]-malonamide]"
7,16,"NC(=O)CC(=O)Nc1ccc(OCc2cccc(F)c2)cc1O [Example 38, N-[4-(3-Fluoro-benzyloxy)-2-hydroxy-phenyl]-malonamide]"
8,14,"COC(=O)CC(=O)Nc1ccc(OCc2cccc(F)c2)c(C)c1 [Example 47, N-[4-(3-Fluoro-benzyloxy)-3-methyl-phenyl]-malonamic acid methyl ester]"
9,19,"Cc1cc(NC(=O)CC(N)=O)ccc1OCc1cccc(F)c1 [Example 48, N-[4-(3-Fluoro-benzyloxy)-3-methyl-phenyl]-malonamide]"
10,18,"NC(=O)CC(=O)Nc1ccc(C=Cc2ccc(F)cc2)cc1 [Example 57, N-{4-[2-(4-Fluoro-phenyl)-vinyl]-phenyl}-malonamide]"
11,16,"NCC(=O)Nc1ccc(OCc2ccc(F)cc2)cc1F [Example 66, 2-Amino-N-[2-fluoro-4-(4-fluoro-benzyloxy)-phenyl]-acetamide (1:1) hydrochloride]"
12,7,"O=CNCC(=O)Nc1ccc(OCc2ccc(F)cc2)cc1F [Example 72, N-[2-Fluoro-4-(4-fluoro-benzyloxy)-phenyl]-2-formylamino-acetamide]"
